Assay type in all cases: cell-based
Experiment [1] concerns P. falciparum Dd2:A597V (CRISPR edited PfAcAS). Put plainly: Blood-stage dose-response assay, CRISPR-edited Dd2:A597V line. As to conditions: Plasmodium falciparum, mean ± SD, n bioreplicates. As to the method:
(§1) For in vitro–selected lines, drug susceptibility was measured by SYBR Green I–based assay ([Johnson et al., 2007]; [Smilkstein et al., 2004]). Ring-stage parasites were cultured for 72 hr at 1% hematocrit and 1% starting parasitemia in 384-well black clear-bottom plates containing test compounds plated in triplicate in 12-point serial dilutions. Lysis buffer (0.16% w/v saponin, 1.6% Triton X-100, 5 mM EDTA, and 20 mM Tris-HCl, pH 7.4) with SYBR Green I fluorescent dye (Invitrogen) was added, and fluorescence readings were taken (excitation at 494 nm, emission at 530 nm). Alternatively, Dd2-B2 ring-stage cultures at 0.3% parasitemia and 1% hematocrit were exposed for 72 hr to a range of ten drug concentrations that were 2-fold serially diluted in duplicates along with drug-free controls. Parasite survival was assessed by flow cytometry on an Accuri C6 (BD Biosciences) using SYBR Green and MitoTracker Deep Red FM (Life Technologies) as nucleic acid stain and vital dyes respectively. EC50 values were calculated using a nonlinear regression curve fit in Prism Software version 8 (GraphPad).
(§2) Mutant PfAcAS-A597V and PfAcAS-T648M parasites were generated using CRISPR/Cas9. The guide RNAs for PfAcAS-A597V (5′-[…]-3′; 5′-[…]-3′) and for PfAcAS-T648M (5′-[…]-3′) were designed using Benchling (https://benchling.com/) to targeting sites in PfAcAS that were 6-14 bp upstream of the A597 codon and 6 bp downstream of the T648 codon respectively. Complementary oligos encoding the gRNA sequences (5′- tatt[…]-3’ / 5’-aaac[…]-3’; 5’-tatt[…]-3’ / 5’-aaac[…]-3’ and 5’- tattg[…]-3’ / 5’-aaac[…]c-3’ ) were phosphorylated using T4 polynucleotide kinase and annealed (95°C for 5 min, then step down of 5°C/min to 25°C) prior to ligation into the BbsI-digested pDC2-coCas9-U6.2-hDHFR plasmid ([Lim et al., 2016]). The donor template for PfAcAS-A597V was synthesized (ThermoFisher) as a 700 bp Genestring fragment spanning position 1468 to 2168 of the PfAcAS gene, and the donor for PfAcAS-T648M synthesized as a 829 bp fragment spanning position 1468 to 2297 and inserted into the AatII/EcoRI sites of the pDC2-coCas9-gRNA-hDHFR plasmid by Gibson assembly. Ring-stage parasites (Dd2) at 5% parasitemia were transfected by electroporation (BioRad Gene Pulser II at 0.310 kV and 950 μF) with 50 μg of each plasmid (plasmid 1: pDC2-coCas9-AcAS-A597V-gRNA1-hDHFR, plasmid 2: pDC2-coCas9-gRNA2-hDHFR, or plasmid 3: pDC2-coCas9-AcAS-T648M-gRNA1-hDHFR), and parasites selected for 10 days with 2.5 nM WR99210 (Jacobus Pharmaceuticals), followed by removal of drug pressure. After confirmation of editing in the bulk culture, clones were isolated by serial limiting dilution and confirmed by Sanger sequencing after PCR amplification from genomic DNA using forward primer 5′-[…]-3′ and reverse primer 5′-[…]-3′ (for A597V) and 5′-[…]-3′ (for T648M).

The subject of experiment [2] is P. falciparum Dd2-B2. The experiment in a line: Blood-stage dose-response assay (72 hr), Dd2 / Dd2-B2 parent. As to conditions: Plasmodium falciparum. As to the method: (§3) The 3D7-A10 clone has been used in previous in vitro drug selection and sequencing efforts ([Cowell et al., 2018]). Dd2 parasites were obtained from T. Wellems (NIAID, NIH). Dd2-B2 is a genetically homogeneous line that was cloned from Dd2 by limiting dilution in the Fidock lab. Parasite strains were cultured in 3-5% human O+ hematocrit in RPMI 1640 (Life Technologies) supplemented with 28 mM NaHCO3, 25 mM HEPES, and hypoxanthine ([…]). Depending on the parasite line, the media either contained gentamycin (25 μg/mL), or no antibiotic and was additionally supplemented with 0.5% AlbuMAX II (Life Technologies) and/or O+ human serum (heat inactivated and pooled). Blood and serum products were obtained from Interstate Blood Bank. Cultures were maintained at 37°C in 1.1% O2, 4% CO2, and 95% N2. Parasite populations were synchronized by 5% sorbitol treatment ([Lambros and Vanderberg, 1979]).
as §1

In experiment [3] the test system is P. falciparum Dd2:T648M (CRISPR edited PfAcAS). Put plainly: Blood-stage dose-response assay, CRISPR-edited Dd2:T648M line. Conditions: Plasmodium falciparum, mean ± SD, n bioreplicates. As to the method:
as §1, §2

Experiment [4] has as its system P. falciparum 3D7-A10. The experiment in a line: Blood-stage dose-response assay (SYBR Green I, 72 hr), 3D7 / 3D7-A10 parent. Conditions: Plasmodium falciparum. As to the method:
as §3, §1

Where [5] appears, read: DD2, read-out: Dd2-B2 parent EC50 ± SD (nM).
The mark [6] stands for this setting: mean ± SD, n bioreplicates, read-out: 3D7-A10 parent EC50 ± SD.

Where two headings read alike, the source gives them in different places.

Three compounds from PMC8878317, “Chemogenomics identifies acetyl-coenzyme A synthetase as a target for malaria treatment and prevention” (Cell Chemical Biology, 2022) can be followed below.

Turning to `O=C1C(O)=C([C@H]2CC[C@H](c3ccc(Cl)cc3)CC2)C(=O)c2ccccc21` [Atovaquone, reference compound], the EC50 stood at 0.55 ± 0.35 nM in experiment [1], 0.3 ± 0.13 nM in experiment [2] (setting [5]), 0.69 ± 0.38 nM in experiment [3] and 0.42 ± 0.05 nM in experiment [4] (setting [6]).

Take `CCN(CC)S(=O)(=O)c1ccc(Cl)c(C(=O)Nc2ccc3nc(C)sc3c2)c1` [MMV019721]: the EC50 in experiment [1] was 6200 nM; in experiment [2] (setting [5]), 400 ± 72 nM; in experiment [2] (DD2, read-out: P. falciparum Dd2 EC50), 400 ± 72 nM; in experiment [2] (DD2, read-out: mean EC50 (nM) ± SD (n)) it was 400 ± 72 nM; in experiment [3], 8200 nM; in experiment [4] (blood-stage parasites in vitro, read-out: P. falciparum 3D7 half-maximal effective concentration [EC50]), 460 ± 100 nM. Moreover, in experiment [4] (setting [6]), the EC50 is 400 ± 58 nM.

Take `O=C(NNC(=O)c1csnn1)c1ccc(Cl)cc1` [MMV084978]: the EC50 in experiment [1] came out at 43000 nM; in experiment [2] (setting [5]) it was 150 ± 36 nM; in experiment [3], 12000 nM; in experiment [4] (setting [6]), 110 ± 28 nM.
